Where two headings read alike, the source gives them in different places.
Legend:
estrogen receptor = target: T1, estrogen receptor (Rattus norvegicus, UniProt P06211); assay: relative binding affinity (RBA) for estrogen receptor from immature rat uterus
T1 construct: estrogen receptor from immature rat uterus; from tissue; host or cells: uterus cytosol of immature rats
T1 sequence (P06211 1-600): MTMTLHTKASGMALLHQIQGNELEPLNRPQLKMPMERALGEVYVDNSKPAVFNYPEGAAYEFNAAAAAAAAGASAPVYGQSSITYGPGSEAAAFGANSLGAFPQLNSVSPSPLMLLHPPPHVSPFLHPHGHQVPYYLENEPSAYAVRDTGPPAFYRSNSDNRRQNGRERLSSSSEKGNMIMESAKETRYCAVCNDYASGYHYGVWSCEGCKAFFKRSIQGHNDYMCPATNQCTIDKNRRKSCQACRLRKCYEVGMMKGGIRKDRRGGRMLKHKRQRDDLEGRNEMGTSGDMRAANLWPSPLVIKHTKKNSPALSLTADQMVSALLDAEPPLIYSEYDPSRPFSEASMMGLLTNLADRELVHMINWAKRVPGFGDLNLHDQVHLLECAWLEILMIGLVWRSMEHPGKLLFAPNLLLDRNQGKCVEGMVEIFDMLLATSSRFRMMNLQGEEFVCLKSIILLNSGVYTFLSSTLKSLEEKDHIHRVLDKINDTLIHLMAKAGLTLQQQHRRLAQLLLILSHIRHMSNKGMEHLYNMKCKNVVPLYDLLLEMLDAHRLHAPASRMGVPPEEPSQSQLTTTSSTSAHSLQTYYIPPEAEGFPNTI
Description: (§1) concentrations) with cytosol containing the receptor and a tritiumlabeled
(§2) required to displace 50% of bound radioligand is determined graphically

glucocorticoid receptor = target: T2, glucocorticoid receptor (Rattus norvegicus, UniProt P06536); assay: relative binding affinity (RBA) for glucocorticoid receptor from thymus of adrenalectomized rats; details: for RBA for Glucocorticoid receptor: relative to dexamethasone = 100, average of 1-3 assays; for binding to the glucocorticoid receptor, times the RBA of dexamethasone: compared with dexamethasone
T2 construct: glucocorticoid receptor from thymus of adrenalectomized rats; from tissue; host or cells: thymus cytosol of adrenalectomized rats
T2 sequence (P06536 1-795): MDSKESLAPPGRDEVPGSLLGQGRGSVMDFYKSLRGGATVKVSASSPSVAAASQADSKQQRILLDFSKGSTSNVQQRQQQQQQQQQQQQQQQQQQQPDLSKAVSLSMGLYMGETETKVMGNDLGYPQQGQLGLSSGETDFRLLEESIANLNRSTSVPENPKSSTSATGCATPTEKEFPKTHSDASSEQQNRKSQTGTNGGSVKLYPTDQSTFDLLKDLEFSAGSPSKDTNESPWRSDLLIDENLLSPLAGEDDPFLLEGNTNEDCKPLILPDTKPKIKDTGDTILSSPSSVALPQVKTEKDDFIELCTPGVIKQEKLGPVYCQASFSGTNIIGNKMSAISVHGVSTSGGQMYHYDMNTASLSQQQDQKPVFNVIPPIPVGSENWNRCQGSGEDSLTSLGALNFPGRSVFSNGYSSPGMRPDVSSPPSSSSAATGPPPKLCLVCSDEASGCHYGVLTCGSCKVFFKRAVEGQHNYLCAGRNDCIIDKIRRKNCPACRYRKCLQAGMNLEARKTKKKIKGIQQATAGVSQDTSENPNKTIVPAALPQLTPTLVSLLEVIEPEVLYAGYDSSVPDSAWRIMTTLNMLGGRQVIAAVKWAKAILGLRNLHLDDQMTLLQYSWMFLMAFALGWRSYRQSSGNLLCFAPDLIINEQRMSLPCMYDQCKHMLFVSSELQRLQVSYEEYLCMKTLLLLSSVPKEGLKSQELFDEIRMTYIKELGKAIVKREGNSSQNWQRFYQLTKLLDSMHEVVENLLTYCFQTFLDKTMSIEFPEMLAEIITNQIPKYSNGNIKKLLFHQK
Description: as §1, §2

progesterone receptor = target: T3, progesterone receptor (Oryctolagus cuniculus, UniProt P06186); assay: relative binding affinity (RBA) for progesterone receptor in cytosol of estrogen-primed immature rabbit uterus; details: relative to progesterone = 100; average of 1-3 assays
T3 construct: cytosol obtained from estrogen-primedimmature rabbit uterus; from tissue; host or cells: uterus cytosol of estrogen-primed immature rabbits
T3 sequence (P06186 1-930): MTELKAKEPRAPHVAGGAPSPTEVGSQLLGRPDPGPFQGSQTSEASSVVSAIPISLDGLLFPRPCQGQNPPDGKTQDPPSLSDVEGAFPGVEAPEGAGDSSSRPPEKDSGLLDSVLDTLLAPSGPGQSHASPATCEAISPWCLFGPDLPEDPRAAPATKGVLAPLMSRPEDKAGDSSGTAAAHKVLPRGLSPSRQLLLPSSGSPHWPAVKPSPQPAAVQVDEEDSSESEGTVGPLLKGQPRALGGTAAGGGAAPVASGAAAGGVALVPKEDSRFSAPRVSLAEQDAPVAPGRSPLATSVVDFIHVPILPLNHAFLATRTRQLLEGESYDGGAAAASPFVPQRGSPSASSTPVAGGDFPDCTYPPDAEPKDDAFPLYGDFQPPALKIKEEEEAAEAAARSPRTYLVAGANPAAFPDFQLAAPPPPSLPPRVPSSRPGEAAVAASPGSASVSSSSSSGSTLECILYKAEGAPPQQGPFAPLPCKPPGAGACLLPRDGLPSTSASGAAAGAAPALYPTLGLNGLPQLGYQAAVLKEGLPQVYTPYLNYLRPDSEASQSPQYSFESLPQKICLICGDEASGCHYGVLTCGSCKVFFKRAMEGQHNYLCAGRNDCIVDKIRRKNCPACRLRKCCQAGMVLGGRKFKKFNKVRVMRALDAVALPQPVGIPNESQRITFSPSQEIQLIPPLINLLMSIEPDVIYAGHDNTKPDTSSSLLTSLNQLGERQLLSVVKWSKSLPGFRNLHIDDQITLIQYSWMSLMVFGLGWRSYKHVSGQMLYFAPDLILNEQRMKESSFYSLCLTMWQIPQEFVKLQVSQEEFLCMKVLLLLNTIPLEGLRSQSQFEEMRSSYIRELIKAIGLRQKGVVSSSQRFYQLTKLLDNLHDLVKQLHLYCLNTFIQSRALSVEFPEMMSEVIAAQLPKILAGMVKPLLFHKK
Description: as §1, §2

[1] = in vivo; cited from earlier work
[2] = vs levonorgestrel; cited from earlier work
[3] = tested on: endometrial response due to subcutaneous administration of progesterone; assay: in vivo antiprogestational activity, intrauterine (McGinty test); set-up: species or system rabbit
Source text: (§3) The antiprogestational activity of compound XVa was studied after both intrauterine and oral administration. […] The methodology used for the intrauterine test has been described by D. A. McGinty et al [Endocrinology, 24, 829 (1939)]. For oral administration of test compounds the method used was analogous to that of Clauberg [Clauberg, Zentr. Gynakol, 54, 2757 (1930)] as modified by McPhail [J. Physiol. (London) 83, 145 (1935)].
(§4) ^a Immature female rabbits are primed with estrogen and dosed with
(§5) stained and scored for endometrial proliferation according to McPhail.

[4] = tested on: endometrial response due to subcutaneous administration of progesterone; assay: in vivo antiprogestational activity, oral (Clauberg test modified by McPhail); set-up: species or system rabbit
Source text: as §3, §4, §5

[5] = relative to estradiol = 100, average of 1-3 assays

| Compound | RBA for Estrogen receptor (estrogen receptor; [5]) | RBA for Glucocorticoid receptor (glucocorticoid receptor) | RBA for Progestin receptor (progesterone receptor) | also measured |
| --- | --- | --- | --- | --- |
| 11β-(4-Dimethylaminophenyl)-17β-hydroxy-17α-azidomethyl-4,9-estradien-3-one [XVb] | 0 | 143 | 71 | – |
| 11β-(4-Dimethylaminophenyl)-17β-hydroxy-17α-benzyl-4,9-estradien-3-one [XVd] | 0 | 274 | 64 | binding to the glucocorticoid receptor, times the RBA of dexamethasone (glucocorticoid receptor): ca. 3 times |
| 11β-(4-Dimethylaminophenyl)-17β-hydroxy-17α-methoxymethyl-4,9-estradien-3-one [XVc] | 0 | 413 | 54 | binding to the glucocorticoid receptor, times the RBA of dexamethasone (glucocorticoid receptor): ca. 3 times |
| 11β-(4-Dimethylaminophenyl)-17β-hydroxy-17α-prop-2-yn-1-yl- 4,9-estradien-3-one [XVe] | 0 | 100 | 23 | – |
| C[C@@H]1C[C@H]2[C@@H]3CCC4=CC(=O)C=C[C@]4(C)[C@@]3(F)[C@@H](O)C[C@]2(C)[C@@]1(O)C(=O)CO [Dexamethasone, reference compound] | – | – | 0.1 | – |
| CC(=O)[C@H]1CC[C@H]2[C@@H]3CCC4=CC(=O)CC[C@]4(C)[C@H]3CC[C@]12C [Progesterone, reference compound] | 0 | – | – | – |
| C[C@]12CCC3=C4CCC(=O)C=C4CC[C@H]3[C@@H]1CC[C@@]2(O)CC#N [STS 557] | – | – | – | progestational activity [1]: strong progestational activity; oral potency as a gestagen relative to levonorgestrel [2]: ten times |
| CN(C)c1ccc([C@H]2C[C@@]3(C)[C@@H](CC[C@@]3(O)CC#N)[C@@H]3CCC4=CC(=O)CCC4=C32)cc1 [XVa, 17α-Cyanomethyl-11β-(4-dimethylaminophenyl)-17β-hydroxy-4,9-estradien-3-one] | – | 74 | 33 | RBA for Estrogen receptor (estrogen receptor): 0; % Inhibition of Progestational Response ([3]; total dose per rabbit 1.0 μg): 7.3 ± 4.5%; % Inhibition of Progestational Response ([3]; total dose per rabbit 5.0 μg): 26.7 ± 4.5%; % Inhibition of Progestational Response ([3]; total dose per rabbit 10.0 μg): 80.5 ± 9.8%; % Inhibition of Progestational Response ([3]; total dose per rabbit 40.0 μg): 96.3 ± 3.7%; % Inhibition of Progestational Response ([4]; total dose per rabbit 5 mg): 7.8 ± 6.0%; % Inhibition of Progestational Response ([4]; total dose per rabbit 10 mg): 56.2 ± 7.1%; % Inhibition of Progestational Response ([4]; total dose per rabbit 20 mg): 79.1 ± 7.4% |

Source: patent publication US4861763A, “17 α-(substituted-methyl)-17β-hydroxy/esterified hydroxy steroids and their progestational use” (Research Triangle Institute, priority 1988, dated 1989)
